Data taken from patent US20220354957A1, “PEPTIDES TARGETING MACROPHAGES, AND CONJUGATES, COMPOSITIONS, AND USES THEREOF” (Twinpig Biolab, Inc., priority 2021, published 2022).

What was measured:
M2-like TAMs = test: FACS of tumor macrophages and CD8+ T cells in mouse model of melanoma; assay type: in vivo; settings: vs PBS group
Description: BALB/c and C57BL/6 (B6) wild-type mice were purchased from DBL. For the subcutaneous tumor model of melanoma and prostate cancer, CT26 (3×10^5 cells/mouse), B16F10 (1×10^6 cells/mouse) and TRAMP-C2 cells (1×10^6 cells/mouse) were mixed with Matrigel matrix (Corning) and inoculated subcutaneously into the right flank of the mice, and 4T1 (1×10^5 cells/mouse) cells mixed with Matrigel matrix and inoculated into a 4th mammary fat pad of the mice. TAMpepK, and MpepK peptides (200 nmol/kg) were injected intraperitoneally every 3 days, beginning at day 7 after tumor inoculation, and tumor volume was measured by electronic caliper. All tumor tissues were harvested after the end of the study and tumor weight was measured by an electronic balance.
THP-1 cells were differentiated into macrophages by a 24 h incubation with 100 nM PMA and polarized in M2 macrophages by incubation with 20 ng/ml of IL-4 and 20 ng/ml of IL-13 for 72 h. Polarized cells were treated with 50 nM TAMpep and fragments of TAMpep or Mpep and alanine library of Mpep conjugated with FITC for 1 h. To test change of macrophage population in melanoma tissue, the single cells were isolated from tumor tissue through a 40 μm nylon mesh strainer after dissociation by DNase I (1 U/mL) and collagenase D (1 mg/ml). Cells were detected on BD FACSCalibur and BD FACSCantoII instruments and analyzed by FlowJo software.

[1] = system: lung fibrosis induced by bleomycin; test: Mouse model of lung fibrosis (bleomycin); assay type: in vivo
Procedure: For lung fibrosis mouse model, C57BL/6 (B6) wild-type mice were lightly anesthetized with 2.5% isoflurane and administered bleomycin (BLM, 2 mg/kg) via oropharyngeal aspiration (OA) using a micropipette. After 14 days, the mice were intraperitoneally injected with MpepK (200 nmol/kg) every other day. The animal studies were approved by the Institutional Animal Care and Use Committee of Kyung Hee University (KHUASP(SE)-20-530 for melanoma and 20-382 for prostate cancer). All animals were maintained in a specific pathogen-free environment on a 12-h light/dark cycle with free access to food and water. Nesting sheets were used for enrichment. After the experiments were terminated, all mice were euthanized using isoflurane and cervical dislocation.
(§1) Total RNA was extracted using Easy-Blue reagent. Concentrations of RNA were determined and quantified by measuring absorbance at 260 and 280 nm with a spectrophotometer. […] PCR conditions were forty-five cycles at 95° C. for 5 min, followed by 95° C. for 10 sec, 60° C. for 10 sec and 72° C. for 10 sec. mRNA expression were quantified in triplicate. Data were measured with CFX Software (Bio-Rad). […]
The lung tissues of lung fibrosis mouse model were fixed in 10% neutral buffered formalin and embedded in paraffin. […] The sections were examined and evaluated randomly using standard light microscopy (Olympus).

[2] = system: TGF-β1-induced A549 cells cocultured with IL-4 and IL-13 induced THP-1 macrophages; test: In vitro lung fibrosis model, coculture; assay type: cell-based, human; settings: 1.5 μM, cocultured with M2 polarization of THP-1
Procedure: THP-1 cells were purchased from the American Type Culture Collection (ATCC) and cultured according to their specific indications, using an RPMI 1640 medium supplemented with non-heat-treated 10% fetal bovine serum (FBS; WelGENE), 2 mM L-glutamine, 0.05 mM β-mercaptoethanol, 10 mM HEPES, 4500 mg/L glucose, 100 U/ml penicillin and 100 μg/ml streptomycin (Gibco). Human alveolar cell, A549 cells, obtained from the American Type Culture Collection (ATCC), were cultured in RPMI 1640 medium containing 2.05 mM L-glutamine, 2 g/liter sodium bicarbonate and 2 g/liter glucose (WelGENE) together with 10% FBS (WelGENE), 100 U/ml penicillin and 100 μg/m1 streptomycin (Gibco). Cells were cultured at 37° C. in a 5% CO2 humidified incubator to reach 80% of confluence.
THP-1 cells are differentiated into macrophages by 24 h incubation with 100 nM phorbol 12-myristate 13-acetate (PMA, Sigma) followed by 24 h incubation in RPMI medium (Invtrogen). […]
as §1

For CC[C@H](C)[C@H](NC(=O)[C@H](CC(C)C)NC(=O)[C@H](C)NC(=O)[C@@H]1CCCN1C(=O)[C@H](CC(C)C)NC(=O)CNC(=O)[C@@H](NC(=O)[C@@H](NC(=O)[C@H](CC(C)C)NC(=O)[C@@H](NC(C)=O)C(C)C)[C@@H](C)O)[C@@H](C)O)C(=O)N[C@@H](CO)C(=O)N[C@@H](Cc1c[nH]c2ccccc12)C(=O)N[C@H](C(=O)N[C@@H](CCCCN)C(=O)N[C@@H](CCCNC(=N)N)C(=O)N[C@@H](CCCCN)C(=O)N[C@@H](CCCNC(=N)N)C(=O)N[C@@H](CCC(N)=O)C(=O)N[C@@H](CCC(N)=O)C(=O)NCC(=O)NCC(=O)NCC(=O)NCC(=O)N[C@@H](CO)C(=O)N[C@H](CCCCN)C(=O)N[C@H](CC(C)C)C(=O)N[C@H](C)C(=O)N[C@H](CCCCN)C(=O)N[C@H](CC(C)C)C(=O)N[C@H](C)C(=O)N[C@H](CCCCN)C(=O)N[C@H](CCCCN)C(=O)N[C@H](CC(C)C)C(=O)N[C@H](C)C(=O)N[C@H](CCCCN)C(=O)N[C@H](CC(C)C)C(=O)N[C@H](C)C(=O)N[C@H](CCCCN)C(=O)O)[C@@H](C)CC [MpepK], the “exhaustion markers, such as PD-1 and LAGS, in CD8+ T cells” value (M2-like TAMs; melanoma model) was “significantly reduced”, the “M1-like TAMs (F4/80+ and CD86+ cells)” value (M2-like TAMs; melanoma tumor tissue) was “no change” and the M1/M2 ratio (M2-like TAMs; melanoma tumor tissue) was “significantly increased”. For the same compound, the “M2-like TAMs (F4.80+ and CD206+ cells)” value (M2-like TAMs; melanoma tumor tissue) was “reduced”, the “lung fibrosis induced by bleomycin” value ([1]; 200 nmol/kg i.p. every other day, H&E) was “decreased” and the “gene expression related to fibrosis such as fos12, collagen type 1 and fibronectin 1” value ([1]; compared to PBS) was “significantly reduced”. For the same compound, the “inhibitory effect on EMT and FMT of epithelial cells” value [2] was “no significant inhibitory effect”.
